Reference: patent US20230374038A1, “MODULATORS OF CYSTIC FIBROSIS TRANSMEMBRANE CONDUCTANCE REGULATOR” (VERTEX PHARMACEUTICALS INCORPORATED, priority 2020, published 2023)
pEC50: −log10 of the molar value.

Key:
[1] = target: T1, CFTR (Homo sapiens, UniProt P13569); experiment: Membrane Potential Dye, Enteroid Assay A; assay type: cell-based; conditions: for pEC50: read-out: Ent. A EC50
Procedure: Base medium (ADF+++) consisted of Advanced DMEM/Ham's F12, 2 mM Glutamax, 10 mM HEPES, 1 µg/mL penicillin/streptomycin.
Intestinal enteroid maintenance medium (IEMM) consisted of ADF+++, 1× B27 supplement, 1× N2 supplement, 1.25 mM N-acetyl cysteine, 10 mM Nicotinamide, 50 ng/mL hEGF, 10 nM Gastrin, 1 pg/mL hR-spondin-1, 100 ng/mL hNoggin, TGF-b type 1 inhibitor A-83-01, 100 μg/mL Primocin, […] P38 MAPK inhibitor SB202190.
Bath 1 Buffer consisted of 1 mM MgCl2, 160 mM NaCl, 4.5 mM KCl, 10 mM HEPES, 10 mM Glucose, 2 mM CaCl2).
Chloride Free Buffer consisted of 1 mM Magnesium Gluconate, 2 mM Calcium Gluconate, 4.5 mM Potassium Gluconate, 160 mM Sodium Gluconate, 10 mM HEPES, 10 mM Glucose.
Bath1 Dye Solution consisted of Bath 1 Buffer, 0.04% Pluronic F127, […] Methyl Oxonol, 30 μM CaCCinh-A01, 30 μM Chicago Sky Blue.
Chloride Free Dye Solution consisted of Chloride Free Buffer, 0.04% Pluronic F127, 20 μM Methyl Oxonol, 30 μM CaCCinh-A01, 30 μM Chicago Sky Blue.
Chloride Free Dye Stimulation Solution consisted of Chloride Free Dye Solution, 10 μM forskolin, 100 μM IBMX, and 300 nM Compound III.
Human intestinal epithelial enteroid cells were obtained from the Hubrecht Institute for Developmental Biology and Stem Cell Research, Utrecht, The Netherlands and expanded in T-Flasks as previously described (Dekkers J F, Wiegerinck C L, de Jonge H R, Bronsveld I, Janssens H M, de Winter-de Groot K M, Brandsma A M, de Jong N W M, Bijvelds M J C, Scholte B J, Nieuwenhuis E E S, van den Brink S, Clevers H, van der Ent C K, Middendorp S and M Beekman J M. A functional CFTR assay using primary cystic fibrosis intestinal organoids. Nat Med. 2013 July; 19(7):939-45.).
Cells were recovered in cell recovery solution, collected by centrifugation at 650 rpm for 5 min at 4° C., resuspended in TryPLE and incubated for 5 min at 37° C. Cells were then collected by centrifugation at 650 rpm for 5 min at 4° C. and resuspended in IEMM containing 10 μM ROCK inhibitor (RI). The cell suspension was passed through a 40 μm cell strainer and resuspended at 1×10^6 cells/mL in IEMM containing 10 μM RI. Cells were seeded at 5000 cells/well into multi-well plates and incubated for overnight at 37° C., 95% humidity and 5% CO2 prior to assay.
Enteroid cells were incubated with test compound in IEMM for 18-24 hours at 37° C., 95% humidity and 5% CO2. […] Briefly, cells were washed 5 times in Bath 1 Buffer. Bath 1 Dye Solution was added, and the cells were incubated for 25 min at room temperature. Following dye incubation, cells were washed 3 times in Chloride Free Dye Solution. Chloride transport was initiated by addition of Chloride Free Dye Stimulation Solution and the fluorescence signal was read for 15 min. […] Chloride transport was then expressed as a percentage of the chloride transport following treatment with 3 μM (S)—N-((6-aminopyridin-2-yl)sulfonyl)-6-(3-fluoro-5-isobutoxyphenyl)-2-(2,2,4-trimethylpyrrolidin-1-yl)nicotinamide, 3 μM (R)-1-(2,2-difluorobenzo[d][1,3]dioxol-5-yl)-N-(1-(2,3-dihydroxypropyl)-6-fluoro-2-(1-hydroxy-2-methylpropan-2-yl)-1H-indol-5-yl)cyclopropanecarboxamide and 300 nM acute N-[2,4-bis(1,1-dimethylethyl)-5-hydroxyphenyl]-1,4-dihydro-4-oxoquinoline-3-carboxamide triple combination control (% Activity).

[2] = target: T1, CFTR; experiment: Membrane Potential Dye, Enteroid Assay B; assay type: cell-based; conditions: for pEC50: read-out: Ent. B EC50
Procedure, shortened: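 Membrane-potential fluorescence read over 15 min after chloride-free stimulation (forskolin 10 μM, IBMX 100 μM, Compound III 300 nM), with CaCCinh-A01 and Chicago Sky Blue present. Enteroids had 18-24 h compound exposure at 37 °C; activity given as % of the triple-combination corrector/potentiator reference response.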

T1 sequence (P13569 with tags, fused parts or gaps DEL508-508): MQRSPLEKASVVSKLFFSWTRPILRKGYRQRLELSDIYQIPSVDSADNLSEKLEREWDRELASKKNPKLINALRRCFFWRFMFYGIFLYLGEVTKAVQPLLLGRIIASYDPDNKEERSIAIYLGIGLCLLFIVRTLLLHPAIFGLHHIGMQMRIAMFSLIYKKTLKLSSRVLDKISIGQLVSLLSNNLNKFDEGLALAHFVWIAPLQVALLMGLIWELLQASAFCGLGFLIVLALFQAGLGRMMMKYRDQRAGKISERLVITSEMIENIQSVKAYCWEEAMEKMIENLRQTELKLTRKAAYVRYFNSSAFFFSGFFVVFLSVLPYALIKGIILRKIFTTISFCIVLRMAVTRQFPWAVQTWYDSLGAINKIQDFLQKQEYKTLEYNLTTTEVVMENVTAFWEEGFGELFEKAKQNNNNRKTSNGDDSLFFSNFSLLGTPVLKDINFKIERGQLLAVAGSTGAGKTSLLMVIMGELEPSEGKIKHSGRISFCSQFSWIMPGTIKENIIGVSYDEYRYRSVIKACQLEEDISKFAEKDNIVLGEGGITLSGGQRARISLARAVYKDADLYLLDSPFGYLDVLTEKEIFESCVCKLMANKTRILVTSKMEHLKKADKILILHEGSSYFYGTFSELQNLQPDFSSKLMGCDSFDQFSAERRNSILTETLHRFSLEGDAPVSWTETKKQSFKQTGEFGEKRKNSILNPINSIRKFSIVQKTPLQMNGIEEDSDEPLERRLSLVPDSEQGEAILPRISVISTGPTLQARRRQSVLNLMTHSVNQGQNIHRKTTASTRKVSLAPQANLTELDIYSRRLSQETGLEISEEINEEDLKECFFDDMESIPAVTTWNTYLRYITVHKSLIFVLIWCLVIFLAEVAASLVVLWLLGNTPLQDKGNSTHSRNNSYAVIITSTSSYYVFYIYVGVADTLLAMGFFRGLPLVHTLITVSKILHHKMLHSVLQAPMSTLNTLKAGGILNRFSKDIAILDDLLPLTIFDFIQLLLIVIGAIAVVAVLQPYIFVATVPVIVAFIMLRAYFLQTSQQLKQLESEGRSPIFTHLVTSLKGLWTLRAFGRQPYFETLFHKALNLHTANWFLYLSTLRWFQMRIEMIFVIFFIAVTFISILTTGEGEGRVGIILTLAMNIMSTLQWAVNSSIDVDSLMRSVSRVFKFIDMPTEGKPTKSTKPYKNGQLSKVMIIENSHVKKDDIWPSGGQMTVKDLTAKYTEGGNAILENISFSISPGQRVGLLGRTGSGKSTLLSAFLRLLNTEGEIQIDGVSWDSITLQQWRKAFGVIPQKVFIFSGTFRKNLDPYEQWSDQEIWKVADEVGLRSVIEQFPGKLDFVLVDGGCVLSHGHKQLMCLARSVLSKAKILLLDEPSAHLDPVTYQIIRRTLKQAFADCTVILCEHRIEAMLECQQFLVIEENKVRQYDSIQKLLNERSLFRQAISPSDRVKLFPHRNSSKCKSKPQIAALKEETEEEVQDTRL

Row | Ent. A Max Activity [1] | pEC50 [1] | Ent. B Max Activity [2] | pEC50 [2] | Structure (SMILES)
1 | + (+ is <30%) | – | – | – | CCc1c2nc(nc1-c1cnccc1C)NS(=O)(=O)c1cccc(c1)NC(=O)c1cccc(c1)O2 [Compound 21]
2 | + (+ is <30%) | – | – | – | CC(C)Oc1cccc(-c2nc3nc(c2C(C)(C)C)OC2CN(Cc4ccccc42)C(=O)c2cccc(c2)S(=O)(=O)N3)c1 (stereo not shown) [Compound 44]
3 | + (+ is <30%) | – | – | – | Cc1ncccc1-c1nc2nc(c1C(F)(F)F)OC1CN(Cc3ccccc31)C(=O)c1cccc(c1)S(=O)(=O)N2 (stereo not shown) [Compound 40, 12-(2-Methyl-3-pyridyl)-8,8-dioxo-13-(trifluoromethyl)-15-oxa-8λ^6-thia-1,9,11,25-tetrazapentacyclo[14.7.1.13,7.110,14.017,22]hexacosa-3,5,7(26),10(25),11,13,17(22),18,20-nonaen-2-one]
4 | + (+ is <30%) | – | – | – | CC(C)(C)c1c2nc(nc1-c1ccccc1)NS(=O)(=O)c1cccc(c1)C(=O)N1Cc3ccccc3C(C1)O2 (stereo not shown) [Compound 46]
5 | + (+ is <30%) | – | – | – | CCc1c2nc(nc1-c1cccnc1C)NS(=O)(=O)c1cccc(c1)NC(=O)c1cccc(c1)O2 [Compound 7, 4-Ethyl-5-(2-methylpyridin-3-yl)-2-oxa-9λ^6-thia-6,8,15,23-tetraazatetracyclo[15.3.1.13,7.110,14]tricosa-1(21),3,5,7(23),10(22),11,13,17,19-nonaene-9,9,16-trione]
6 | +++ (+++ is >60%) | > 6.00 | +++ (+++ is >60%) | > 6.00 | Cc1cccc(C)c1-c1nc2nc(c1OC(C)C)OC[C@@H](CC(C)C)N(C1CC3(CCN(C(=O)OC(C)(C)C)CC3)C1)C(=O)c1cccc(c1)S(=O)(=O)N2 [Compound 177]
7 | +++ (+++ is >60%) | > 6.00 | – | – | CC(C)CCc1ccccc1-c1nc2nc(c1C(F)(F)F)OC1CN(Cc3ccccc31)C(=O)c1cccc(c1)S(=O)(=O)N2 (stereo not shown) [Compound 41]
8 | +++ (+++ is >60%) | > 6.00 | +++ (+++ is >60%) | > 6.00 | CC(C)C[C@@H]1COc2nc(nc(-c3ccccc3C(C)C)c2C(F)(F)F)NS(=O)(=O)c2cccc(c2)C(=O)N1 [Compound 164, (11R)-11-Isobutyl-6-(2-isopropylphenyl)-2,2-dioxo-7-(trifluoromethyl)-9-oxa-2λ^6-thia-3,5,12,19-tetrazatricyclo[12.3.1.14,8]nonadeca-1(18),4,6,8(19),14,16-hexaen-13-one]
9 | + (+ is <30%) | – | – | – | CCc1c2nc(nc1-c1cccnc1OC)NS(=O)(=O)c1cccc(c1)NC(=O)c1cccc(c1)O2 [Compound 20]
10 | + (+ is <30%) | – | – | – | Cc1ncccc1-c1nc2nc(c1C(C)(C)C)OC1CN(Cc3ccccc31)C(=O)c1cccc(c1)S(=O)(=O)N2 (stereo not shown) [Compound 45]
11 | ++ (++ is 30-60%) | > 6.00 | – | – | Cc1ccccc1-c1nc2nc(c1C(C)(C)C)OC1CN(Cc3ccccc31)C(=O)c1cccc(c1)S(=O)(=O)N2 (stereo not shown) [Compound 39, 13-tert-Butyl-12-(o-tolyl)-8,8-dioxo-15-oxa-8λ^6-thia-1,9,11,25-tetrazapentacyclo[14.7.1.13,7.110,14.017,22]hexacosa-3,5,7(26),10(25),11,13,17(22),18,20-nonaen-2-one]
12 | + (+ is <30%) | > 6.00 | – | – | CC(C)Oc1cccc(-c2nc3nc(c2C(F)(F)F)OC2CN(Cc4ccccc42)C(=O)c2cccc(c2)S(=O)(=O)N3)c1 (stereo not shown) [Compound 42]
13 | +++ (+++ is >60%) | > 6.00 | +++ (+++ is >60%) | > 6.00 | CCc1c2nc(nc1-c1c(C)cccc1C)NS(=O)(=O)c1cccc(c1)C(=O)N[C@H](CC(C)C)CO2 [Compound 190]
14 | +++ (+++ is >60%) | > 6.00 | – | – | Cc1ccccc1-c1nc2nc(c1C(F)(F)F)OC1CN(Cc3ccccc31)C(=O)c1cccc(c1)S(=O)(=O)N2 (stereo not shown) [Compound 43]
15 | +++ (+++ is >60%) | > 6.00 | +++ (+++ is >60%) | > 6.00 | Cc1cccc(C)c1-c1nc2nc(c1OC(C)C)OC[C@@H](CC(C)C)N(C1CC3(CCN(C)CC3)C1)C(=O)c1cccc(c1)S(=O)(=O)N2 [Compound 176]
16 | + (+ is <30%) | 5.52 to 6.00 | – | – | CCc1c2nc(nc1-c1cccc(OC(C)C)c1)NS(=O)(=O)c1cccc(c1)NC(=O)c1cccc(c1)O2 [Compound 28]
17 | ++ (++ is 30-60%) | > 6.00 | – | – | CCc1c2nc(nc1-c1c(C)ccc(OCCC(C)C)c1C)NS(=O)(=O)c1cccc(c1)NC(=O)c1cccc(c1)O2 [Compound 9]
18 | + (+ is <30%) | 5.52 to 6.00 | – | – | CCOc1ccccc1-c1nc2nc(c1CC)Oc1cccc(c1)C(=O)Nc1cccc(c1)S(=O)(=O)N2 [Compound 24]
19 | + (+ is <30%) | > 6.00 | – | – | CCc1c2nc(nc1-c1cccc(OCC(C)C)c1)NS(=O)(=O)c1cccc(c1)NC(=O)c1cccc(c1)O2 [Compound 27]
20 | +++ (+++ is >60%) | > 6.00 | +++ (+++ is >60%) | > 6.00 | CCc1c2nc(nc1-c1c(C)cccc1C)NS(=O)(=O)c1cccc(c1)C(=O)N(C1CC3(CCN(C(=O)OC(C)(C)C)CC3)C1)[C@H](CC(C)C)CO2 [Compound 158, tert-butyl 2-[(11R)-6-(2,6-dimethylphenyl)-7-ethyl-11-isobutyl-2,2,13-trioxo-9-oxa-2λ^6-thia-3,5,12,19-tetrazatricyclo[12.3.1.14,8]nonadeca-1(17),4(19),5,7,14(18),15-hexaen-12-yl]-7-azaspiro[3.5]nonane-7-carboxylate]
21 | + (+ is <30%) | – | – | – | CCc1c2nc(nc1-c1ccccc1)NS(=O)(=O)c1cccc(c1)NC(=O)c1cccc(c1)O2 [Compound 30]
22 | ++ (++ is 30-60%) | 5.52 to 6.00 | – | – | CCc1c2nc(nc1-c1c(C)cccc1OC)NS(=O)(=O)c1cccc(c1)NC(=O)c1cccc(c1)O2 [Compound 6, 4-Ethyl-5-(2-methoxy-6-methylphenyl)-2-oxa-9λ^6-thia-6,8,15,23-tetraazatetracyclo[15.3.1.13,7.110,14]tricosa-1(21),3,5,7(23),10(22),11,13,17,19-nonaene-9,9,16-trione]
23 | + (+ is <30%) | – | – | – | CCc1c2nc(nc1-c1ccncc1C)NS(=O)(=O)c1cccc(c1)NC(=O)c1cccc(c1)O2 [Compound 22]
24 | +++ (+++ is >60%) | > 6.00 | – | – | CCc1c2nc(nc1-c1c(C)cccc1C)NS(=O)(=O)c1cccc(c1)C(=O)NCC(c1ccc(C(C)(C)C)cc1)O2 (stereo not shown) [Compound 178]
25 | ++ (++ is 30-60%) | 4.52 to 5.52 | – | – | CCc1c2nc(nc1-c1ccccc1OC)NS(=O)(=O)c1cccc(c1)NC(=O)c1cccc(c1)O2 [Compound 23]
26 | +++ (+++ is >60%) | > 6.00 | +++ (+++ is >60%) | > 6.00 | CCc1c2nc(nc1-c1c(C)cccc1C)NS(=O)(=O)c1cccc(c1)C(=O)N(C1CC3(CCN(C)CC3)C1)[C@H](CC(C)C)CO2 [Compound 159, (11R)-6-(2,6-Dimethylphenyl)-7-ethyl-11-isobutyl-12-(7-methyl-7-azaspiro[3.5]nonan-2-yl)-2,2-dioxo-9-oxa-2λ^6-thia-3,5,12,19-tetrazatricyclo[12.3.1.14,8]nonadeca-1(17),4(19),5,7,14(18),15-hexaen-13-one]
